Measured values as given in PubChem BioAssay (NCI).
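Briefly, cells in 96-well plates were exposed to five compound concentrations for 48 h, and endpoints were estimated by linear interpolation. At the GI50, growth is halved. TGI is the concentration that stops growth completely.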

What was measured:
Assay in all cases: DTP human tumour cell line panel, 48 h
[1] = tested on: 786-0 renal
[2] = tested on: A498 renal
[3] = tested on: A549 NSCLC
[4] = tested on: ACHN renal
[5] = tested on: BT-549 breast
[6] = tested on: CAKI-1 renal
[7] = tested on: CCRF-CEM leukemia
[8] = tested on: COLO 205 colon
[9] = tested on: DU-145 prostate
[10] = tested on: EKVX NSCLC
[11] = tested on: HCC-2998 colon
[12] = tested on: HCT-116 colon
[13] = tested on: HCT-15 colon
[14] = tested on: HL-60(TB) leukemia
[15] = tested on: HOP-62 NSCLC
[16] = tested on: HOP-92 NSCLC
[17] = tested on: HS 578T breast
[18] = tested on: HT29 colon
[19] = tested on: IGROV1 ovarian
[20] = tested on: K-562 leukemia
[21] = tested on: KM12 colon
[22] = tested on: LOX IMVI melanoma
[23] = tested on: M14 melanoma
[24] = tested on: MALME-3M melanoma
[25] = tested on: MCF7 breast
[26] = tested on: MDA-MB-231 breast
[27] = tested on: MDA-MB-435
[28] = tested on: MOLT-4 leukemia
[29] = tested on: NCI-H226 lung

`CN1CCN(Cc2ccc(NC(=O)c3cncc(C#Cc4cnc5ccc(OCC6COC6)nn45)c3)cc2C(F)(F)F)CC1` showed a GI50 [1] of 0.272 µM, a TGI [1] of 0.847 µM and a GI50 [2] of 0.483 µM. The TGI [2] was 1.11 µM, the GI50 [3] was 0.174 µM and the TGI [3] was 0.655 µM. It also gave a GI50 [4] of 0.167 µM, a TGI [4] of 0.605 µM and a GI50 [5] of 0.538 µM. It also gave a TGI [5] of 1.18 µM, a GI50 [6] of 0.117 µM and a TGI [6] of 0.432 µM. The GI50 [7] was 0.184 µM, the TGI [7] was 3.88 µM and the GI50 [8] was 0.103 µM. It also gave a TGI [8] of 0.222 µM, a GI50 [9] of 0.177 µM and a TGI [9] of 0.573 µM. It also gave a GI50 [10] of 0.273 µM, a TGI [10] of 0.954 µM and a GI50 [11] of 0.31 µM. The TGI [11] was 1.11 µM, the GI50 [12] was 0.0911 µM and the TGI [12] was 0.306 µM. The GI50 [13] was 0.153 µM, the TGI [13] was 0.568 µM and the GI50 [14] was 0.121 µM. The TGI [14] was 0.412 µM, the GI50 [15] was 0.175 µM and the TGI [15] was 0.589 µM. It also gave a GI50 [16] of 0.028 µM, a TGI [16] of 0.166 µM and a GI50 [17] of 0.235 µM. The TGI [17] was 1.32 µM, the GI50 [18] was 0.166 µM and the TGI [18] was 0.687 µM. The GI50 [19] was 0.142 µM, the TGI [19] was 0.583 µM and the GI50 [20] was 0.005 µM. For the same compound, the TGI [20] was 5.12 µM, the GI50 [21] was 0.005 µM and the TGI [21] was 0.451 µM. The GI50 [22] was 0.165 µM, the TGI [22] was 0.62 µM and the GI50 [23] was 0.0889 µM. For the same compound, the TGI [23] was 0.205 µM, the GI50 [24] was 0.0895 µM and the TGI [24] was 0.314 µM. It also gave a GI50 [25] of 0.096 µM, a TGI [25] of 0.528 µM and a GI50 [26] of 0.095 µM. It also gave a TGI [26] of 0.445 µM, a GI50 [27] of 0.144 µM and a TGI [27] of 0.615 µM. The GI50 [28] was 0.129 µM, the TGI [28] was 0.941 µM and the GI50 [29] was 0.0504 µM. It also gave a TGI [29] of 0.709 µM.
